Results reported in patent US20230072421A1, “TARGETED RADIOPHARMACEUTICALS FOR THE DIAGNOSIS AND TREATMENT OF PROSTATE CANCER” (Bayer AS, priority 2019, published 2023).

How the values were obtained:
[1] = Biodistribution study in LNCaP tumor-bearing mice (Th227 counted in organs); format: in vivo, SCID mice; conditions: 500 kBq/kg; for Th-227 in Blood / Th-227 in Femur and tibia / Th-227 in Kidneys / Th-227 in Liver / Th-227 in Salivary gland / Th-227 in Spleen / Th-227 in Tumor / Th-227 in prostate: study b2999
Experimental: (§1) SCID mice were randomly assigned to experimental groups, ten animals per group (efficacy) or n=3-5 per time point of biodistribution study. At the initiation of the study, a testosterone pellet was subcutaneously transplanted, the animals were shaved, tattooed and each cage was labeled with the cage number, study number and number of animals per cage.
(§2) LNCaP human prostate cancer cells were cultured as described according to the supplier's protocols. Cells were harvested for transplantation in a subconfluent (70%) state. Animals were injected with 5×10^6 LNCaP cells suspended in 100% Matrigel subcutaneously into the flank of the mice.
Biodistribution study: When tumors reached a predetermined size in mice of ˜50 mm^2 animals were randomized into groups (n=3 animals/time point) and the radioactive compound was once applied intravenously. The i.v. application volume was 100 μl/mice.
At the predetermined time point, n=3 animals were sacrificed, the organs removed, weight and measured in a Germanium detector to count the Th227 in the sample.

[2] = system: LNCaP human prostate cancer cells; assay: LNCaP xenograft efficacy study (T/C tumor area); format: in vivo, SCID mice; conditions: Example I
Experimental: as §1, §2
Efficacy study: When tumors reached a predetermined size in mice of 35-50 mm^2 animals were randomized into treatment and control groups (n=10 animals/group) and treatment with the defined radioactive dose was started. The i.v. application volume was 100 μl/mice.
Tumor response was assessed by determination of the tumor area (product of the longest diameter and its perpendicular) using a caliper. The animal body weight was monitored as a measure for treatment-related toxicity. Measurement of tumor area and body weight was performed two to three times weekly.
Animals were sacrificed when showing signs of toxicity (>20% body weight loss) or when tumors reached a size of approximately 200 mm^2.
Tumor growth inhibition is presented as T/C ratio (Treatment/Control) calculated with tumor areas when the vehicle control group had to be closed.

C4-2 cells = assay: Cell proliferation assay (CellTiter-Glo, 5-day exposure), C4-2; format: cell-based; conditions: C4-2, 1000 cells/well, Th-227 labelled at 375 kBq/nmol, mean of 1 to 6 experiments
Summary of the method: (§3)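 Prostate cancer cells (VCaP 4000/well; 22Rv1, C4-2, LNCaP 1000/well), Th-227-labelled PSMA ligands, 5-day exposure; viability by CTG at start and end.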

22Rv1 cells = assay: Cell proliferation assay (CellTiter-Glo, 5-day exposure), 22Rv1; format: cell-based; conditions: 22Rv1, 1000 cells/well, Th-227 labelled at 375 kBq/nmol, mean of 1 to 6 experiments
Summary of the method: as §3

VCaP cells = assay: Cell proliferation assay (CellTiter-Glo, 5-day exposure), VCaP; format: cell-based; conditions: 4000 cells/well, Th-227 labelled at 375 kBq/nmol, mean of 1 to 6 experiments
Summary of the method: as §3

SMILES: O=C(O)CCC(NC(=O)NC(CCCCNC(=O)C(Cc1ccc2ccccc2c1)NC(=O)C1CCC(CNC(=S)Nc2ccc(CC(CN(CCNC(=O)c3ccn(CCO)c(=O)c3[O-])CCNC(=O)c3ccn(CCO)c(=O)c3[O-])CN(CCNC(=O)c3ccn(CCO)c(=O)c3[O-])CCNC(=O)c3ccn(CCO)c(=O)c3[O-])cc2)CC1)C(=O)O)C(=O)O.[227Th+4] (centres unmarked) [Example 1-F-227Th]
- Background in blood, liver and spleen (in words) ([1]; comparison of % injected dose per gram tissue): highest background
- Th-227 in Blood ([1]; 0.25 h): 4.80 % ID Th-227/g organ
- Th-227 in Femur and tibia ([1]; 0.25 h): 1.46 % ID Th-227/g organ
- Th-227 in Kidneys ([1]; 0.25 h): 51.79 % ID Th-227/g organ
- Th-227 in Liver ([1]; 0.25 h): 2.63 % ID Th-227/g organ
- Th-227 in Salivary gland ([1]; 0.25 h): 0.31 % ID Th-227/g organ
- Th-227 in Spleen ([1]; 0.25 h): 2.35 % ID Th-227/g organ
- Th-227 in Tumor ([1]; 0.25 h): 9.36 % ID Th-227/g organ
- Th-227 in prostate ([1]; 0.25 h): 3.62 % ID Th-227/g organ
- Th-227 in Blood ([1]; 1 hr): 2.28 % ID Th-227/g organ
- Th-227 in Femur and tibia ([1]; 1 hr): 1.68 % ID Th-227/g organ
- Th-227 in Kidneys ([1]; 1 hr): 58.96 % ID Th-227/g organ
- Th-227 in Liver ([1]; 1 hr): 2.41 % ID Th-227/g organ
- Th-227 in Salivary gland ([1]; 1 hr): 2.68 % ID Th-227/g organ
- Th-227 in Spleen ([1]; 1 hr): 1.86 % ID Th-227/g organ
- Th-227 in Tumor ([1]; 1 hr): 10.58 % ID Th-227/g organ
- Th-227 in prostate ([1]; 1 hr): 4.83 % ID Th-227/g organ
- Th-227 in Blood ([1]; 6 hr): 0.35 % ID Th-227/g organ
- Th-227 in Femur and tibia ([1]; 6 hr): 1.30 % ID Th-227/g organ
- Th-227 in Kidneys ([1]; 6 hr): 67.34 % ID Th-227/g organ
- Th-227 in Liver ([1]; 6 hr): 2.19 % ID Th-227/g organ
- Th-227 in Salivary gland ([1]; 6 hr): 1.48 % ID Th-227/g organ
- Th-227 in Spleen ([1]; 6 hr): 1.51 % ID Th-227/g organ
- Th-227 in Tumor ([1]; 6 hr): 13.03 % ID Th-227/g organ
- Th-227 in prostate ([1]; 6 hr): 1.97 % ID Th-227/g organ
- Th-227 in Blood ([1]; 24 h): 0.06 % ID Th-227/g organ
- Th-227 in Femur and tibia ([1]; 24 h): 0.88 % ID Th-227/g organ
- Th-227 in Kidneys ([1]; 24 h): 34.39 % ID Th-227/g organ
- Th-227 in Liver ([1]; 24 h): 2.49 % ID Th-227/g organ
- Th-227 in Salivary gland ([1]; 24 h): 0.75 % ID Th-227/g organ
- Th-227 in Spleen ([1]; 24 h): 0.94 % ID Th-227/g organ
- Th-227 in Tumor ([1]; 24 h): 6.05 % ID Th-227/g organ
- Th-227 in prostate ([1]; 24 h): 0.34 % ID Th-227/g organ
- Th-227 in Blood ([1]; 72 h): 0.02 % ID Th-227/g organ
- Th-227 in Femur and tibia ([1]; 72 h): 0.79 % ID Th-227/g organ
- Th-227 in Kidneys ([1]; 72 h): 12.99 % ID Th-227/g organ
- Th-227 in Liver ([1]; 72 h): 1.96 % ID Th-227/g organ
- Th-227 in Salivary gland ([1]; 72 h): 0.73 % ID Th-227/g organ
- Th-227 in Spleen ([1]; 72 h): 1.14 % ID Th-227/g organ
- Th-227 in Tumor ([1]; 72 h): 3.40 % ID Th-227/g organ
- Th-227 in prostate ([1]; 72 h): 0.68 % ID Th-227/g organ
- Th-227 in Blood ([1]; 168 h): 0.00 % ID Th-227/g organ
- Th-227 in Femur and tibia ([1]; 168 h): 1.07 % ID Th-227/g organ
- Th-227 in Kidneys ([1]; 168 h): 6.79 % ID Th-227/g organ
- Th-227 in Liver ([1]; 168 h): 2.14 % ID Th-227/g organ
- Th-227 in Salivary gland ([1]; 168 h): 0.74 % ID Th-227/g organ
- Th-227 in Spleen ([1]; 168 h): 1.34 % ID Th-227/g organ
- Th-227 in Tumor ([1]; 168 h): 1.13 % ID Th-227/g organ
- Th-227 in prostate ([1]; 168 h): 0.13 % ID Th-227/g organ
- Th-227 in Blood ([1]; 336 h): 0.00 % ID Th-227/g organ
- Th-227 in Femur and tibia ([1]; 336 h): 1.18 % ID Th-227/g organ
- Th-227 in Kidneys ([1]; 336 h): 2.29 % ID Th-227/g organ
- Th-227 in Liver ([1]; 336 h): 1.69 % ID Th-227/g organ
- Th-227 in Salivary gland ([1]; 336 h): 0.42 % ID Th-227/g organ
- Th-227 in Spleen ([1]; 336 h): 1.41 % ID Th-227/g organ
- Th-227 in Tumor ([1]; 336 h): 0.74 % ID Th-227/g organ
- Th-227 in prostate ([1]; 336 h): 0.22 % ID Th-227/g organ
- T/Carea ([2]; day 27, 2 x 400 + 2 x 750 kBq/kg weekly): 1.03
- T/Carea ([2]; day 37, 2 x 400 + 3 x 750 kBq/kg): 0.82
- Proliferation assay on cancer cell lines by TTCs Default Pivot #3 IC50 [kBq/mL] C4-2 1000cells 375kBq/nmol (mean) (C4-2 cells): 2.14 kBq/mL
- Proliferation assay on cancer cell lines by TTCs Default Pivot #3 IC50 [kBq/mL] 22Rv1 1000cells 375kBq/nmol (mean) (22Rv1 cells): 1.06 kBq/mL
- Proliferation assay on cancer cell lines by TTCs Default Pivot #3 IC50 [kBq/mL] VCap 4000cells 375kBq/nmol (mean) (VCaP cells): 3.07 kBq/mL
